# Results reported in PubChem BioAssay AID2060613 (Molecular Pharmacology Branch, DTP, NCI, 2025).
# Test system: 233499-124-R-J3-PDC complex spheroid viability
# Test: Anticancer human tumor 233499-124-R-J3-PDC patient-derived colon adenocarcinoma cell line growth inhibition [CLK]
# Details: for IC50: curve of first compound; for viability, T/C: stronger effect = lower value
# Procedure, shortened: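 Multi-cell-type spheroids combined patient-derived tumor cells with HUVEC endothelial cells and human mesenchymal stem cells. Paired agents were dosed in half-log steps down from about clinical Cmax, or from 10 microM where Cmax was unknown.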
# [1] = second compound 0.0316 µM, first compound 0.0316 µM
# [2] = second compound 0.0316 µM, first compound 0.1 µM
# [3] = second compound 0.0316 µM, first compound 0.316 µM
# [4] = second compound 0.0316 µM, first compound 1 µM
# [5] = second compound 0.0316 µM, first compound 3.16 µM
# [6] = second compound 0.0316 µM, first compound 10 µM
# [7] = second compound 0.1 µM, first compound 0.0316 µM
# [8] = second compound 0.1 µM, first compound 0.1 µM
# [9] = second compound 0.1 µM, first compound 0.316 µM
# [10] = second compound 0.1 µM, first compound 1 µM
# [11] = second compound 0.1 µM, first compound 3.16 µM
# [12] = second compound 0.1 µM, first compound 10 µM
# [13] = second compound 0.316 µM, first compound 0.0316 µM
# [14] = second compound 0.316 µM, first compound 0.1 µM
# [15] = second compound 0.316 µM, first compound 0.316 µM
# [16] = second compound 0.316 µM, first compound 1 µM
# [17] = second compound 0.316 µM, first compound 3.16 µM
# [18] = second compound 0.316 µM, first compound 10 µM
# [19] = second compound 1 µM, first compound 0.0316 µM
# [20] = second compound 1 µM, first compound 0.1 µM
# [21] = second compound 1 µM, first compound 0.316 µM
# [22] = second compound 1 µM, first compound 1 µM
# [23] = second compound 1 µM, first compound 3.16 µM
# [24] = second compound 1 µM, first compound 10 µM
# [25] = second compound 3.16 µM, first compound 0.0316 µM
# [26] = second compound 3.16 µM, first compound 0.1 µM
# [27] = second compound 3.16 µM, first compound 0.316 µM
# [28] = second compound 3.16 µM, first compound 1 µM
# [29] = second compound 3.16 µM, first compound 3.16 µM
# [30] = second compound 3.16 µM, first compound 10 µM
# [31] = second compound 10 µM, first compound 0.0316 µM
# [32] = second compound 10 µM, first compound 0.1 µM
# [33] = second compound 10 µM, first compound 0.316 µM
# [34] = second compound 10 µM, first compound 1 µM
# [35] = second compound 10 µM, first compound 3.16 µM
# [36] = second compound 10 µM, first compound 10 µM
# 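Further: spheroids exposed to the drug combinations for seven days.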
# 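Wherever viability, T/C is given: percent viability relative to DMSO vehicle control wells taken as 100%.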
structure (smiles),measurement,setting,value
C=CC(=O)Nc1cc(Nc2nccc(-c3cn(C)c4ccccc34)n2)c(OC)cc1N(C)CCN(C)C + CN1CCN(c2cc(C(=O)Nc3cc4cc(-c5cnn(C)c5)ccc4cn3)ccn2)CC1,IC50,second compound 0.0316 µM,> 0.3 µM
same,IC50,second compound 0.1 µM,> 0.3 µM
same,IC50,second compound 0.316 µM,> 0.3 µM
same,IC50,second compound 1 µM,< 0.000949 µM
same,IC50,second compound 3.16 µM,< 0.000949 µM
same,IC50,second compound 10 µM,< 0.000949 µM
same,"viability, T/C","second compound 0.0316 µM, first compound 0.000949 µM",85.9%
same,"viability, T/C","second compound 0.0316 µM, first compound 0.003 µM",100%
same,"viability, T/C","second compound 0.0316 µM, first compound 0.00949 µM",102%
same,"viability, T/C","second compound 0.0316 µM, first compound 0.03 µM",104%
same,"viability, T/C","second compound 0.0316 µM, first compound 0.0949 µM",99.3%
same,"viability, T/C","second compound 0.0316 µM, first compound 0.3 µM",91.8%
same,"viability, T/C","second compound 0.1 µM, first compound 0.000949 µM",98%
same,"viability, T/C","second compound 0.1 µM, first compound 0.003 µM",102%
same,"viability, T/C","second compound 0.1 µM, first compound 0.00949 µM",93.7%
same,"viability, T/C","second compound 0.1 µM, first compound 0.03 µM",97.9%
same,"viability, T/C","second compound 0.1 µM, first compound 0.0949 µM",94.5%
same,"viability, T/C","second compound 0.1 µM, first compound 0.3 µM",83%
same,"viability, T/C","second compound 0.316 µM, first compound 0.000949 µM",90.3%
same,"viability, T/C","second compound 0.316 µM, first compound 0.003 µM",92.2%
same,"viability, T/C","second compound 0.316 µM, first compound 0.00949 µM",89.7%
same,"viability, T/C","second compound 0.316 µM, first compound 0.03 µM",89.4%
same,"viability, T/C","second compound 0.316 µM, first compound 0.0949 µM",93.8%
same,"viability, T/C","second compound 0.316 µM, first compound 0.3 µM",76.6%
same,"viability, T/C","second compound 1 µM, first compound 0.000949 µM",4.73%
same,"viability, T/C","second compound 1 µM, first compound 0.003 µM",9.3%
same,"viability, T/C","second compound 1 µM, first compound 0.00949 µM",0.69%
same,"viability, T/C","second compound 1 µM, first compound 0.03 µM",1.14%
same,"viability, T/C","second compound 1 µM, first compound 0.0949 µM",0.77%
same,"viability, T/C","second compound 1 µM, first compound 0.3 µM",0.67%
same,"viability, T/C","second compound 3.16 µM, first compound 0.000949 µM",0.69%
same,"viability, T/C","second compound 3.16 µM, first compound 0.003 µM",0.65%
same,"viability, T/C","second compound 3.16 µM, first compound 0.00949 µM",0.63%
same,"viability, T/C","second compound 3.16 µM, first compound 0.03 µM",0.6%
same,"viability, T/C","second compound 3.16 µM, first compound 0.0949 µM",0.55%
same,"viability, T/C","second compound 3.16 µM, first compound 0.3 µM",1.62%
same,"viability, T/C","second compound 10 µM, first compound 0.000949 µM",0.51%
same,"viability, T/C","second compound 10 µM, first compound 0.003 µM",0.59%
same,"viability, T/C","second compound 10 µM, first compound 0.00949 µM",0.58%
same,"viability, T/C","second compound 10 µM, first compound 0.03 µM",0.51%
same,"viability, T/C","second compound 10 µM, first compound 0.0949 µM",0.4%
same,"viability, T/C","second compound 10 µM, first compound 0.3 µM",0.27%
CC(=O)O[C@H]1C(=O)[C@@]2(C)[C@H]([C@H](OC(=O)c3ccccc3)[C@]3(O)C[C@H](OC(=O)[C@H](O)[C@@H](NC(=O)c4ccccc4)c4ccccc4)C(C)=C1C3(C)C)[C@]1(OC(C)=O)CO[C@@H]1C[C@@H]2O + CNC(=O)c1ccc(Nc2nc(OC3CCCC3)c3c(-c4ccc5nc(C)oc5c4)c[nH]c3n2)c(OC)c1,IC50,second compound 0.0316 µM,0.14 µM
same,IC50,second compound 0.1 µM,> 10 µM
same,IC50,second compound 0.316 µM,> 10 µM
same,IC50,second compound 1 µM,> 10 µM
same,IC50,second compound 3.16 µM,> 10 µM
same,IC50,second compound 10 µM,> 10 µM
same,"viability, T/C",[1],80%
same,"viability, T/C",[2],59.4%
same,"viability, T/C",[3],18.2%
same,"viability, T/C",[4],21.5%
same,"viability, T/C",[5],31.4%
same,"viability, T/C",[6],37.7%
same,"viability, T/C",[7],81.2%
same,"viability, T/C",[8],66%
same,"viability, T/C",[9],50.7%
same,"viability, T/C",[10],78.5%
same,"viability, T/C",[11],72.9%
same,"viability, T/C",[12],66.5%
same,"viability, T/C",[13],67.9%
same,"viability, T/C",[14],81%
same,"viability, T/C",[15],84.8%
same,"viability, T/C",[16],90.6%
same,"viability, T/C",[17],78.8%
same,"viability, T/C",[18],68.4%
same,"viability, T/C",[19],91.2%
same,"viability, T/C",[20],85.9%
same,"viability, T/C",[21],77.5%
same,"viability, T/C",[22],72.5%
same,"viability, T/C",[23],96.3%
same,"viability, T/C",[24],66.7%
same,"viability, T/C",[25],77%
same,"viability, T/C",[26],87.8%
same,"viability, T/C",[27],89.5%
same,"viability, T/C",[28],90.5%
same,"viability, T/C",[29],83.3%
same,"viability, T/C",[30],74.2%
same,"viability, T/C",[31],67.5%
same,"viability, T/C",[32],82.3%
same,"viability, T/C",[33],79.1%
same,"viability, T/C",[34],79%
same,"viability, T/C",[35],81.1%
same,"viability, T/C",[36],85.8%
CC1COCCN1c1cc(C2(S(C)(=N)=O)CC2)nc(-c2ccnc3[nH]ccc23)n1 (stereo unspecified) + CN1CCN(c2cc(C(=O)Nc3cc4cc(-c5cnn(C)c5)ccc4cn3)ccn2)CC1,IC50,second compound 0.0316 µM,> 10 µM
same,IC50,second compound 0.1 µM,> 10 µM
same,IC50,second compound 0.316 µM,6.97 µM
same,IC50,second compound 1 µM,< 0.0316 µM
same,IC50,second compound 3.16 µM,< 0.0316 µM
same,IC50,second compound 10 µM,< 0.0316 µM
same,"viability, T/C",[1],99.9%
same,"viability, T/C",[2],109%
same,"viability, T/C",[3],98.3%
same,"viability, T/C",[4],106%
same,"viability, T/C",[5],90.3%
same,"viability, T/C",[6],66.6%
same,"viability, T/C",[7],96.6%
same,"viability, T/C",[8],109%
same,"viability, T/C",[9],103%
same,"viability, T/C",[10],90.8%
same,"viability, T/C",[11],75.7%
same,"viability, T/C",[12],53.6%
same,"viability, T/C",[13],94.2%
same,"viability, T/C",[14],93.3%
same,"viability, T/C",[15],98.9%
same,"viability, T/C",[16],86.7%
same,"viability, T/C",[17],71.2%
same,"viability, T/C",[18],40.5%
same,"viability, T/C",[19],3.94%
same,"viability, T/C",[20],1.1%
same,"viability, T/C",[21],0.55%
same,"viability, T/C",[22],1.34%
same,"viability, T/C",[23],1.62%
same,"viability, T/C",[24],0.81%
same,"viability, T/C",[25],0.77%
same,"viability, T/C",[26],0.89%
same,"viability, T/C",[27],1.57%
same,"viability, T/C",[28],0.66%
same,"viability, T/C",[29],0.84%
same,"viability, T/C",[30],0.92%
same,"viability, T/C",[31],0.55%
same,"viability, T/C",[32],0.49%
same,"viability, T/C",[33],0.53%
same,"viability, T/C",[34],0.5%
same,"viability, T/C",[35],0.6%
same,"viability, T/C",[36],0.44%
